Measurements published in PubChem BioAssay (NCI).
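Exposure lasted 48 hours, with cells grown in 96-well plates and compounds tested at five concentrations. TGI marks complete inhibition of growth.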

Assays:
Test in all cases: NCI anticancer screen, dose series, 48 h
SF-268 CNS = system: SF-268 CNS
IGROV1 ovarian = system: IGROV1 ovarian
ACHN renal = system: ACHN renal
NCI-H460 lung = system: NCI-H460 lung
T-47D breast = system: T-47D breast
BT-549 breast = system: BT-549 breast
SNB-75 CNS = system: SNB-75 CNS
SN12C renal = system: SN12C renal
SR leukemia = system: SR leukemia
MDA-MB-231 breast = system: MDA-MB-231 breast
CAKI-1 renal = system: CAKI-1 renal
K-562 leukemia = system: K-562 leukemia
COLO 205 colon = system: COLO 205 colon
NCI/ADR-RES ovarian = system: NCI/ADR-RES ovarian
HCT-15 colon = system: HCT-15 colon
HS 578T breast = system: HS 578T breast
NCI-H226 lung = system: NCI-H226 lung
TK-10 renal = system: TK-10 renal
MDA-N = system: MDA-N

Compound	TGI (SF-268 CNS) [µM]	TGI (IGROV1 ovarian) [µM]	TGI (ACHN renal) [µM]	TGI (NCI-H460 lung) [µM]	TGI (T-47D breast) [µM]	TGI (BT-549 breast) [µM]	TGI (SNB-75 CNS) [µM]	TGI (SN12C renal) [µM]	TGI (SR leukemia) [µM]	TGI (MDA-MB-231 breast) [µM]	TGI (CAKI-1 renal) [µM]	TGI (K-562 leukemia) [µM]	TGI (COLO 205 colon) [µM]	TGI (NCI/ADR-RES ovarian) [µM]	TGI (HCT-15 colon) [µM]	TGI (HS 578T breast) [µM]	TGI (NCI-H226 lung) [µM]	TGI (TK-10 renal) [µM]	TGI (MDA-N) [µM]
Cc1n[nH]c(=O)n1/N=C/c1c[nH]c2ccccc12	> 100	> 100	> 100	> 100	> 100	> 100	> 100	> 100	> 100	> 100	> 100	> 100	> 100	> 100	> 100				
N/N=C1\CCCc2c1no[n+]2[O-]	> 100	> 100	> 100	> 100			> 100	> 100	> 100	> 100	> 100	> 100	> 100	> 100	> 100	> 100	> 100	> 100	> 100
CCCCCCCCCCCCCCCCCCOCC(CO[P+](=O)O)OCCCCCCCCCCCCCCCCCC (centres undefined)	> 50	> 50		> 50	> 50		> 50	> 50	> 50	> 50	> 50	> 50	> 50	> 50	> 50	> 50	> 50	> 50	> 50
CC(CO)C1=CC(C#CCOCc2ccccc2)N(C(=O)Oc2ccccc2)c2ccccc21 (centres undefined)	> 100	> 100	36.3	91.8	> 100		> 100	68.6	> 100	> 100	76.1	> 100	28.4	63.3	29.7	53.5	> 100	> 100	> 100
CC#C[I+]c1ccccc1	35.1	> 100	32	> 100			> 100	25.6	36.5		27.9	33.3	26				> 100	30.4	
O=[N+]([O-])c1cc(Cl)cc2cc(Cl)cnc12	> 100	66.8	> 100	> 100	97.2	> 100	98	> 100	> 100	> 100	> 100	> 100	> 100	> 100	> 100	> 100	> 100	> 100	
COc1nc2sc3c(c2c(=O)n1CCCSSCCCn1c(OC)nc2sc4c(c2c1=O)CCCC4)CCCC3		> 100	> 100		> 100		> 100	> 100		> 100	> 100	> 100	> 100	> 100	> 100		> 100	> 100	> 100
CCN(CC)CCCNc1nc2ccccc2c2[nH]c3ccc(OC)cc3c12	4.43	3.72	> 10	1.57	> 10		3.35	7.1	5.95	3.29	8.25	3.44	2.59	2.92	3.05	3.81	9.83	5.55	2.99
CCOC(=O)CCC(NC(=O)Cc1ccc(Oc2nc3ccccc3nc2-c2cccs2)cc1)C(=O)OCC (centres undefined)	12.6	> 100	18.3	> 100		> 100		> 100	> 100	29.1	> 100	> 100	> 100	> 100	> 100	81.1	86.2	69.2	
Cc1cccc(-c2cc(=S)c3cc(N4CCCC4)ccc3[nH]2)c1	> 100		> 100		> 100		> 100	> 100		> 100	> 100	> 100	> 100	> 100	> 100	> 100	> 100	> 100	> 100
O=C(OCC1OC(c2nn[nH]n2)C(OC(=O)c2ccccc2)C1OC(=O)c1ccccc1)c1ccccc1 (centres undefined)	> 100		> 100	> 100		> 100	> 100	> 100			> 100	> 100	> 100	> 100	> 100		> 100	> 100	> 100
COC(=O)CCn1cnc2c(SC)ncnc21	> 100	> 100	> 100	> 100	> 100		> 100	> 100	> 100	> 100	> 100	> 100	> 100	> 100		> 100	> 100	> 100	> 100
NC1=NNC2(C(N)=N1)c1ccccc1-c1ccccc12	> 10	> 10	> 10	> 10	> 10	> 10	> 10	> 10	> 10	> 10	> 10		> 10	> 10	> 10	> 10	> 10	> 10	
N/N=C1/CCCc2nonc21	> 100	> 100	> 100	> 100	> 100			> 100	> 100	> 100	> 100	> 100	> 100	> 100	> 100	> 100		> 100	> 100
